The structures appear in SMILES notation. pEC50, pIC50: −log10 of the molar value.

One experiment addresses T1, Human DYRK1B (Homo sapiens, UniProt Q9Y463).
T1 construct: purchased Invitrogen PR8350B (former PV4649)
The experiment is described as follows: DYRK1B Kinase TR-FRET (IMAP-Tb) Assay. The experiment is classed as biochemical. Particulars: TR-FRET; ATP 70 μM; 37° C. for 60 minutes; averages of multiple runs; read-out: Enzyme IC50 DYRK1B. From the text: The kinase TR-FRET (IMAP-Tb) assay uses a fluorescence labeled substrate peptide in the kinase reaction. Upon phosphorylation by the kinase, phosphopeptide is produced, which will be detected by the binding solution provided in IMAP TR-FRET binding kit. After the completion of the kinase reaction, the reaction will be stopped by adding the binding solution containing terbium tracer. This tracer is immobilized on the surface of the IMAP beads, which also contain metal ions on the beads that bind to the phospho-groups of the products. Thus the phosphorylated product of the reaction can enter into close proximity to the tracer, producing resonance energy transfer. Due to the long lifetime of terbium (Tb) fluorescence the detection can be run in time resolved mode, which virtually eliminates fluorescence interference from assay components or compounds. […] IC50 is the amount of test compound that inhibits 50% of the activity of DYRK1B in this assay. […] 1. Human DYRK1B: from Invitrogen. Part # PR8350B (former PV4649) 2. Substrate Peptide: RRRFRPASPLRGPPK 3. IMAP TR-FRET IPP Explorer Kit: from Molecular Devices. Part # R8157 4. Kinase Assay Buffer (KAB): 10 mM HEPES pH 7.0, 50 mM NaCl, 5 mM MgCl2, 1 mM DTT, 1 mM NaVO4, 200 μg/mL BSA (0.02%) 5. Assay Plate: Remp polypropylene clear 384-well microplate. Cat#23490-102 6. Detection Plate: Costa black 384-well microplate. Cat #3710 Assay Procedure: This assay was performed as follows: 1. Transfer 1.5 μL of 20× compound solution to each well of an assay plate. 2. Add to each well 22.5 μL of KAB Buffer. 3. Add to each well 3 μL of the solution of DYRK1B and ATP. […] Add to each well 3 μL of the substrate peptide. […] Incubate the assay plates at 37° C. for 60 minutes. 6. Add 18 μL of Detection Solution (1:800 diluted Progress bead stock, 1:400 diluted Tb stock, 80% Buffer A, and 20% Buffer B) into each well of detection plates. 7. Transfer 6 μL of assay solution from the assay plate to the detection plate. 8. Shake detection plates for 30 minutes. 9. Read plates in Envision with wavelength set at excitation 340 nm for Tb, emission 490 nm, and […]. 10. Calculation: TR-FRET Signal=(Reading at […])×2000000

The test system of experiment [1] is SW620 human colon cancer cells. Nature of the experiment: SW620 Cell Viability Assay (CellTiter-Glo). The experiment is classed as cell-based. Particulars: SW-620, 96 h, 4 days incubation, read-out: Cellular EC50 SW620. On the procedure:
1. Cell Plate Preparation: SW620 human colon cancer cells (known to express DYRK1B), obtained from ATCC, were seeded into 96-well plates at […] in 50 μL of media. • Harvested the required number of cells (counts & viability determined by Guava Viacount). • Centrifuge cells to pellet and removed supernant. • Resuspended in growth media (50 μL/well) & pipetted thoroughly to break up clumps. • Setup for ˜100 wells/plate, therefore, VT=5 mL/plate @ 1.2×10^5 cells/mL. 1A. Some cells (S-) were allowed to attach for 24 hrs, serum starved for 48 hrs, and then followed with treatments of test compound.
Test Compound solution was prepared in regular corresponding media supplemented with serum
2. Test Compound Preparation: Test compounds were solubilized in either DMSO or media and prepared at various stock concentrations. • All compounds were incubated at 37° C. for 30 minutes and vortexed. • (5 mM stocks of test compound were prepared for non-soluble drugs)
3. Test Compound Plate Preparation:
• The 10 mM test compound stock was diluted to a concentration of 100× the final Cmax concentration. • Then the test compound stock is diluted 50-fold in media and/or second test compound for a final Cmax concentration in the test compound plate. • The Cmax in the test compound plate (2% DMSO) is 2-fold higher than the final Cmax in the cell plate (60 uL titrations were 1:3). 4. Viability Assay: This assay was performed as follows: • Transfer 50 μL of test compound solution per well from the test compound plate onto the cell plate prepared in Step #1. • Mix the plate with treated cells by pipetting up and down three times with 200 μL multi-channel pipet. • Incubate the cells in 5% CO2 incubator @ 37° C. for 4 days. • Run the CellTiter-Glo™ Luminescent Cell Viability Assay. The results of this assay, given as EC50 values, indicate the concentration of test compound that inhibits tumor cell proliferation by 50%.

A further experiment has as its target T2, Human DYRK1A (Homo sapiens, UniProt Q13627).
T2 construct: purchased Invitrogen PV3997
The experiment is described as follows: DYRK1A Kinase TR-FRET (IMAP-Tb) Assay. Particulars: for pIC50: TR-FRET, ATP 70 μM, 37° C. for 60 minutes, averages of multiple runs, read-out: Enzyme IC50 DYRK1A; for inhibition at 10 µM: 10 μM test compound, reported where IC50 was not determined, read-out: Enzyme DYRK1A % inhibition at 10 μM test compound concentration. The experiment is classed as biochemical. From the text: The kinase TR-FRET (IMAP-Tb) assay uses a fluorescence labeled substrate peptide in the kinase reaction. Upon phosphorylation by the kinase, phosphopeptide is produced, which will be detected by the binding solution provided in IMAP TR-FRET binding kit. After the completion of the kinase reaction, the reaction will be stopped by adding the binding solution containing terbium tracer. This tracer is immobilized on the surface of the IMAP beads, which also contain metal ions on the beads that bind to the phospho-groups of the products. Thus the phosphorylated product of the reaction can enter into close proximity to the tracer, producing resonance energy transfer. Due to the long lifetime of terbium (Tb) fluorescence the detection can be run in time resolved mode, which virtually eliminates fluorescence interference from assay components or compounds.
The TR-FRET signal measurement from this assay, given as an IC50 measurement, is a measure of a test compound's ability to interfere with the phosphorylation of the peptide substrate, that is it inhibits the phosphorylation of the substrate peptide by DYRK1A, and is thus a measure of the test compound's ability to inhibit the activity of DYRK1A.
1. Human DYRK1A: from Invitrogen. Part # PV3997
2. Substrate Peptide: […]
3. IMAP TR-FRET IPP Explorer Kit: from Molecular Devices. Part # R8157 4. Kinase Assay Buffer (KAB): 10 mM HEPES pH 7.0, 50 mM NaCl, 5 mM MgCl2, 1 mM DTT, 1 mM NaVO4, 200 μg/mL BSA (0.02%) 5. Assay Plate: Remp polypropylene clear 384-well microplate. […] Detection Plate: Costa black 384-well microplate. […] Transfer 1.5 μL of 20× compound solution to each well of an assay plate. 2. Add to each well 22.5 μL of KAB Buffer. 3. Add to each well 3 μL of the solution of DYRK1A and ATP. […] Add to each well 3 μL of the substrate peptide. The assay concentration is 1.0 μM 5. Incubate the assay plates at 37° C. for 60 minutes. 6. Add 18 μL of Detection Solution (1:800 diluted Progress bead stock, 1:400 diluted Tb stock, 80% Buffer A, and 20% Buffer B) into each well of detection plates. 7. Transfer 6 μL of assay solution from the assay plate to the detection plate. 8. Shake detection plates for 30 minutes. 9. Read plates in Envision with wavelength set at excitation 340 nm for Tb, emission 490 nm, and […].

T1 sequence (Q9Y463 whole entry): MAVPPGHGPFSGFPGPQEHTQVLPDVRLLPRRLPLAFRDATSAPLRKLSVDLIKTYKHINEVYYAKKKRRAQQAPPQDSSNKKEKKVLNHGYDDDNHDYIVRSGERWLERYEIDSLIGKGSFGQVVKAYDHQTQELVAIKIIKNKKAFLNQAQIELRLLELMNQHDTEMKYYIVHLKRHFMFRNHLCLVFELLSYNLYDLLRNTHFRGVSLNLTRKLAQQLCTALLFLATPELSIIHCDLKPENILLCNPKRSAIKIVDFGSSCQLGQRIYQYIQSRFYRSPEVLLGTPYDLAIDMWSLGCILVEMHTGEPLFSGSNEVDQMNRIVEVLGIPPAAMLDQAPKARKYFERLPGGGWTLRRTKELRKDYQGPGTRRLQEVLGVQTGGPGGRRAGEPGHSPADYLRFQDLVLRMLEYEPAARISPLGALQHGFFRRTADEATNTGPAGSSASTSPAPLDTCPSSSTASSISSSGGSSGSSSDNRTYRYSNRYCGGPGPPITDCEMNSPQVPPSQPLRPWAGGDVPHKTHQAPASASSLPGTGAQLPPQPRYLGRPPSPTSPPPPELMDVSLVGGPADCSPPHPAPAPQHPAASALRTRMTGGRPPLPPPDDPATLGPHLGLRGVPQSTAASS

The term pIC50 denotes the IC50 on a negative log10 scale, so that one unit is a factor of ten. A word on the pEC50: it is the negative decadic logarithm of the EC50, by convention in mol/L. `COCCOc1cc2cc(C(=O)Nc3cc(C(=O)OC)ccc3C)c(=O)[nH]c2cc1OC` [Example 23, 3-{[7-Methoxy-6-(2-methoxy-ethoxy)-2-oxo-1,2-dihydro-quinoline-3-carbonyl]-amino}-4-methyl-benzoic acid methyl ester]: the pIC50 on Human DYRK1B is 6.36; at Human DYRK1A it was 6.58. Besides, the negative logarithm of the EC50 (pEC50) in experiment [1] is under 5.00.

Take `COc1cc2cc(C(=O)Nc3cc(C(=O)NCc4ccccc4)ccc3C)c(=O)[nH]c2cc1OC` [Example 42, 6,7-Dimethoxy-2-oxo-1,2-dihydro-quinoline-3-carboxylic acid (5-benzylcarbamoyl-2-methyl-phenyl)-amide]: the results for the negative logarithm of the IC50 (pIC50) at Human DYRK1B and on Human DYRK1A were 6.49 and 6.65, respectively. Also, the negative logarithm of the EC50 (pEC50) in experiment [1] is under 5.00.

In the case of `COc1cc2cc(C(=O)Nc3cc(C(=O)NC(CN)c4ccccc4)ccc3C)c(=O)[nH]c2cc1OC` (centres unmarked) [Example 31, 6,7-Dimethoxy-2-oxo-1,2-dihydro-quinoline-3-carboxylic acid [5-(2-amino-1-phenyl-ethylcarbamoyl)-2-methyl-phenyl]-amide], the pIC50 at Human DYRK1B was 6.85. For the same compound, the pEC50 in experiment [1] is 5.72.

Take `COCCOc1cc2cc(C(=O)Nc3cc(C(=O)N[C@H](CCN)c4ccccc4)ccc3C)c(=O)[nH]c2cc1OC` (single isomer, unassigned) [Example 58]: the negative-log IC50 (pIC50) at Human DYRK1B is 7.54; at Human DYRK1A, 8.05. Also, the negative logarithm of the EC50 (pEC50) in experiment [1] is 5.39.

Take `COCCOc1cc2cc(C(=O)Nc3cc(C(=O)N[C@@H](CCN)c4ccccc4)ccc3Cl)c(=O)[nH]c2cc1OC` [Example 64, (S)-N-(5-(3-Amino-1-phenylpropylcarbamoyl)-2-chlorophenyl)-7-methoxy-6-(2-methoxyethoxy)-2-oxo-1,2-dihydroquinoline-3-carboxamide]: the values for the pIC50 at Human DYRK1B and at Human DYRK1A were 6.60 and 6.73, respectively. In experiment [1], the pEC50 is 5.04.

Regarding `COC(=O)c1ccc(C)c(NC(=O)c2cc3cc(OC)c(OC)cc3[nH]c2=O)c1` [Example 17, 3-[(6,7-Dimethoxy-2-oxo-1,2-dihydro-quinoline-3-carbonyl)-amino]-4-methyl-benzoic acid methyl ester], the pIC50 on Human DYRK1B is 6.25. For the same compound, the negative logarithm of the EC50 (pEC50) in experiment [1] is under 5.00.

Consider `COC(=O)c1ccc(C)c(NC(=O)C2Cc3cc(OC)c(OC)cc3NC2=O)c1` (centres unmarked) [Example 72, 3-[(6,7-Dimethoxy-2-oxo-1,2,3,4-tetrahydro-quinoline-3-carbonyl)-amino]-4-methyl-benzoic acid methyl ester], for which the pIC50 on Human DYRK1B is 5.74; at Human DYRK1A it was 5.25.

As for `COc1cc2cc(C(=O)Nc3cc(C(=O)NC(CN)c4cccc(Cl)c4)ccc3C)c(=O)[nH]c2cc1OC` (centres unmarked) [Example 50, 6,7-Dimethoxy-2-oxo-1,2-dihydro-quinoline-3-carboxylic acid {5-[2-amino-1-(3-chloro-phenyl)-ethylcarbamoyl]-2-methyl-phenyl}-amide], the negative-log IC50 (pIC50) on Human DYRK1B was 7.14. Further, the pEC50 in experiment [1] was 5.95.

For the compound `COc1cc2[nH]c(=O)c(C(=O)Nc3cc(C(=O)NCc4cccc(Cl)c4)ccc3C)cc2cc1O` [Example 68, 6-Hydroxy-7-methoxy-2-oxo-1,2-dihydro-quinoline-3-carboxylic acid [5-(3-chloro-benzylcarbamoyl)-2-methyl-phenyl]-amide], the pIC50 at Human DYRK1B is 6.72; at Human DYRK1A, 7.24.

As for `COc1cc2c(cc1OC)NC(=O)C(C(=O)Nc1cc(C(=O)NCc3ccccc3)ccc1C)C2` (centres unmarked) [Example 74, 6,7-Dimethoxy-2-oxo-1,2,3,4-tetrahydro-quinoline-3-carboxylic acid (5-benzylcarbamoyl-2-methyl-phenyl)-amide], the pIC50 at Human DYRK1B is under 5.00. At Human DYRK1A, the inhibition at 10 µM is 30%.

For `COc1cc2cc(C(=O)Nc3cc(C(=O)N[C@@H](CO)c4ccccc4)ccc3C)c(=O)[nH]c2cc1OC` [Example 56, (R)-N-(5-(2-Hydroxy-1-phenylethylcarbamoyl)-2-methylphenyl)-6,7-dimethoxy-2-oxo-1,2-dihydroquinoline-3-carboxamide], at Human DYRK1B, the negative-log IC50 (pIC50) was under 5.00. For the same compound, the inhibition at 10 µM at Human DYRK1A stood at 31%.

Regarding `COc1cc2cc(C(=O)Nc3cc(C(=O)NCC4CCCCC4)ccc3C)c(=O)[nH]c2cc1OC` [Example 41, 6,7-Dimethoxy-2-oxo-1,2-dihydro-quinoline-3-carboxylic acid [5-(cyclohexylmethyl-carbamoyl)-2-methyl-phenyl]-amide], the negative-log IC50 (pIC50) on Human DYRK1B is 5.59; at Human DYRK1A it was 5.34.

`COCCOc1cc2[nH]c(=O)c(C(=O)Nc3cc(-c4nnn[nH]4)ccc3C)cc2cc1OC` [Example 27, 6-Methoxy-7-(2-methoxy-ethoxy)-2-oxo-1,2-dihydro-quinoline-3-carboxylic acid [2-methyl-5-(1H-tetrazol-5-yl)-phenyl]-amide]: the negative logarithm of the IC50 (pIC50) at Human DYRK1B was 5.18. Also, the inhibition at 10 µM on Human DYRK1A was 41%.

Take `COCCOc1cc2cc(C(=O)Nc3cc(-c4nnn[nH]4)ccc3C)c(=O)[nH]c2cc1OCCOC` [Example 28, 6,7-Bis-(2-methoxy-ethoxy)-2-oxo-1,2-dihydro-quinoline-3-carboxylic acid [2-methyl-5-(1H-tetrazol-5-yl)-phenyl]-amide]: the pIC50 at Human DYRK1B was 5.30. For the same compound, the inhibition at 10 µM on Human DYRK1A was 49%.

For the origin of these results see patent US20120184548A1, “CARBOXYLIC ACID ARYL AMIDES” (priority 2011, published 2012).
